This is an account of results in patent US10842774B2, “Inhibited expression of PD-L1 and enhanced expression of PD-1” (IN Ingredients, Inc., priority 2017, dated 2020).

The subject of series [1] is PD-L1. In words: Immunofluorescence densitometry of PD-L1 expression in rat C6 glioma cells. The series is classed as cell-based. To be noted: for percent inhibition of PD-L1 expression: 24 h, compared to controls; for effect on PD-L1 expression (in words): all concentrations tested. How it is done:
(§1) Immunofluorescence studies were utilized to explore the effects of an active composition including Type-A polymers on PD-L1 proteins. Purified cinnamtannin B1 and cinnamtannin D1 are obtained from Planta Analytica (New Milford, Conn.). A water extract of cinnamon with at least 3% by weight type-A polymers was obtained from IN Ingredients sold as CINNULIN PF. Each dried material was solvated in DMSO and stored at −20° C. until use. The antibodies (anti-PD-L1) were all obtained from Santa Cruz Biotech. All other reagents used were of the highest grade available in commercial products.
(§2) C6 glioma cells (CCL-107) were purchased from American Type Culture Collection (ATCC; Manassas, Va.). Cell cultures were grown in F-12 K medium (Gibco/Invitrogen) supplemented with 10% horse serum and 2% fetal bovine serum and maintained in a humidified atmosphere containing 5% CO2 and 95% air at 37° C. Cultures were grown to 85% confluency in 75 mm flasks, and cells were subcultured by trypsinization of subconfluent cultures using 0.05% trypsin with EDTA. C6 glioma cells were seeded at a density of 0.5×10^6 cells per 35 mm dish, and cultured for two days. Cells were grown to confluence during the experimental period. Three studies were performed: 1) no other treatment of the cells; 2) treatment with LPS (10 μg/mL); and 3) treatment with TNF-α (10 ng/mL). In some studies, cells were incubated in fresh F-12K medium supplemented with either cinnamtannin D1 (at a concentration of 0 μg/ml, 5 μg/ml, 10 μg/ml, 20 μg/ml, 25 μg/ml, or 50 μg/ml) or cinnamtannin B1 (at a concentration of 0 μg/ml, 5 μg/ml, 10 μg/ml, 20 μg/ml, 25 μg/ml, or 50 μg/ml) for 24 h at 37° C. In certain treatment with LPS studies, the cells were incubated in fresh F-12 K medium supplemented with 10 μg/mL LPS or incubated in fresh F-12 K medium supplemented with 10 μg/mL LPS and cinnamtannin D1 at a concentration 10 μg/ml or 50 μg/ml (5 μg/ml and 25 μg/ml were not tested) for 24 h at 37° C. In certain treatment with TNF-α studies, the cells were incubated in fresh FK-12 medium supplemented with 10 ng/mL TNF-α and cinnamtannin D1 at a concentration 10 μg/ml, 20 μg/ml or 50 μg/ml (5 μg/ml was not tested) for 24 h at 37° C.
(§3) Cells were rinsed with ice-cold PBS and fixed with 4% paraformaldehyde for 10 min at room temperature, followed by permeabilization with 0.3% Triton x-100 for 10 min. After being washed with PBS three times, cells were incubated for 1 h in PBS containing 10% normal goat serum blocking solution. The cells were subjected to immunofluorescence staining with the specific antibodies (Rat C6 glioma cells studied for PD-L1 (Santa Cruz Biotech); human macrophage-like THP-1 cells analyzed for PD-1 (Santa Cruz Biotech)) overnight at 4° C. The cells were then washed with cold PBS three times for 3 min each, and incubated with Alexa-labeled secondary antibodies (Invitrogen) at room temperature for 1 h. The cells were examined by fluorescence microscopy (a Nikon TE2000-S microscope, Nikon, Tokyo, Japan). For cell counts, five to ten random fields with approximately similar density of cells in each field were selected for analysis in each plate. Fluorescence intensities (with pixel values exceeding five times the standard deviation of the background) from these images were semi-quantitatively analyzed by densitometry (ImageJ software, NIH Image).

For series [2], the system named is PD-1. Nature of the series: Immunofluorescence densitometry of PDCD-1 (PD-1) expression in human macrophage-like THP-1 cells. The conditions noted are these: 20 μg/ml, 24 hours at 37° C., compared to controls. The class given is cell-based.
Series [3] relates to PD-1. Described as above. The conditions noted are these: for percent increase of PDCD-1 expression: 24 hours at 37° C., compared to controls; for effect on PDCD-1 expression (in words): all concentrations tested, relative to control. The class given is cell-based. How it is done:
In the present study, human macrophage-like THP-1 cells were used to determine the effects of active agents.
Immunofluorescence studies were utilized to explore the effects of an active composition including Type-A polymers on PD-L1 and PD-1 proteins. Doubly linked procyanidin type-A polymers (3% by weight) in a dried extract of bark from C. burmanni was prepared as described (Anderson et al., J. Agric. Food Chem. 2004; 52:65-70), or provided by IN Ingredients Inc. (formerly Integrity Nutraceuticals, Columbia, Tenn., USA) as CINNULIN PF. The dried extract composition was solvated in DMSO and stored at −20° C. until use. The antibodies (anti-PD-L1, anti-PD-1) were all obtained from Santa Cruz Biotech. All other reagents used were of the highest grade available in commercial products.
(§4) Human monocytic THP-1 cells were purchased from ATCC, Manassas, Va. and were maintained in RPMI culture medium supplemented with 10% heat inactivated fetal bovine serum, 10 mM Hepes, 0.1 mM MEM non-essential amino acids, 1 mM sodium pyruvate, and […] penicillin/streptomycin in an atmosphere containing 5% CO2 and 95% air at 37° C. THP-1 monocytes were differentiated in macrophages by 48 hour incubation with phorbol 12-myristate 13-acetate (PMA, Sigma, P8139) in RPMI media at a concentration of 10 ng/mL. Cells were incubated with or without the treatment compounds at dosages indicated below at 37° C. for 24 hours. In certain treatment with LPS studies, the cells were incubated in fresh F-12 K medium supplemented with 10 μg/mL LPS and the type-A polymers at a concentration (from 3% extract) of 0 μg/ml, 5 μg/ml, 10 μg/ml, 25 μg/ml, or 50 μg/ml for 24 h at 37° C. In other treatment with LPS studies, the cells were incubated in fresh F-12 K medium supplemented with 10 μg/mL LPS and cinnamtannin D-1 at a concentration 2.5 μg/ml, 5 μg/ml, 10 μg/ml or 25 μg/ml for 24 h at 37° C.
as §3, with “(human” for “(Rat C6 glioma cells studied for PD-L1 (Santa Cruz Biotech); human”

Series [4] has as its system PD-L1. Nature of the series: LPS-induced overexpression of PD-L1 in rat C6 glioma cells (immunofluorescence densitometry). The class given is cell-based. The conditions noted are these: LPS 10 μg/ml; for percent inhibition of LPS-induced overexpression of PD-L1: 24 h, rat C6 glioma cells. How it is done:
as §1
C6 glioma cells (CCL-107) were purchased from American Type Culture Collection (ATCC; Manassas, Va.). Cell cultures were grown in F-12 K medium (Gibco/Invitrogen) supplemented with 10% horse serum and 2% fetal bovine serum and maintained in a humidified atmosphere containing 5% CO2 and 95% air at 37° C. Cultures were grown to 85% confluency in 75 mm flasks, and cells were subcultured by trypsinization of subconfluent cultures using 0.05% trypsin with EDTA. C6 glioma cells were seeded at a density of 0.5×10^6 cells per 35 mm dish, and cultured for two days. Cells were grown to confluence during the experimental period. Three studies were performed: 1) no other treatment of the cells; 2) treatment with LPS (10 μg/mL); and 3) treatment with TNF-α (10 ng/mL). […]
(§5) Cells were rinsed with ice-cold PBS and fixed with 4% paraformaldehyde for 10 min at room temperature, followed by permeabilization with 0.3% Triton x-100 for 10 min. […] The cells were subjected to immunofluorescence staining with the specific antibodies (Rat C6 glioma cells studied for PD-L1 (Santa Cruz Biotech); human macrophage-like THP-1 cells analyzed for PD-1 (Santa Cruz Biotech)) overnight at 4° C. […] The cells were examined by fluorescence microscopy (a Nikon TE2000-S microscope, Nikon, Tokyo, Japan). […] Fluorescence intensities (with pixel values exceeding five times the standard deviation of the background) from these images were semi-quantitatively analyzed by densitometry (ImageJ software, NIH Image).

For series [5], the system named is PD-1. In words: Immunofluorescence densitometry of LPS-induced PDCD-1 down expression in human macrophage-like THP-1 cells. The series is classed as cell-based. To be noted: LPS 10 μg/ml; for percent inhibition of LPS-induced PDCD-1 down expression: 24 h. How it is done:
as §4
as §3, with “(human” for “(Rat C6 glioma cells studied for PD-L1 (Santa Cruz Biotech); human”

Series [6] has as its system PD-L1. Nature of the series: TNF-α-induced overexpression of PD-L1 in rat C6 glioma cells (immunofluorescence densitometry). The series is classed as cell-based. The conditions noted are these: TNF-α 10 ng/ml; for percent inhibition of TNF-α-induced overexpression of PD-L1: 24 h, rat C6 glioma cells. How it is done:
as §1
as §2, with “In certain treatment with TNF-α studies, the cells were incubated in fresh FK-12 medium supplemented with 10 ng/mL TNF-α and cinnamtannin D1 at a concentration 10 μg/ml, 20 μg/ml or 50 μg/ml (5 μg/ml was not tested) for 24 h at 37° C.” left out
as §5

Series [7] deals with PD-L1. To be noted: treatment for metastatic melanoma (Laubli et al. 2015); cited from earlier work.

Regarding `Oc1cc(O)c2c(c1)O[C@@]1(c3ccc(O)c(O)c3)Oc3cc(O)c4c(c3[C@@H]2C1O)OC(c1ccc(O)c(O)c1)[C@H](O)C4c1c(O)cc(O)c2c1O[C@H](c1ccc(O)c(O)c1)[C@H](O)C2` (some centres unmarked) [cinnamtannin B-1, cinnamtannin B1], the “percent inhibition of PD-L1 expression” value came out at 35.7% with PD-L1 [1] (5 μg/ml), 60.8% in the series on PD-L1 [1] (10 μg/ml), 54.9% in the series with PD-L1 [1] (25 μg/ml) and 41.9% in the series with PD-L1 [1] (50 μg/ml). In addition, the “effect on PD-L1 expression (in words)” value with PD-L1 [1] is “significantly inhibited”. The “percent increase of PDCD-1 expression” value with PD-1 [2] was 62%; in the series with PD-1 [3] (2.5 μg/ml), 21%; in the series with PD-1 [3] (5 μg/ml), 42%; with PD-1 [3] (10 μg/ml), 83%. Moreover, in the series on PD-1 [3], the “effect on PDCD-1 expression (in words)” value is reported as “significantly enhanced”.

On to `Oc1cc(O)c2c(c1)O[C@@]1(c3ccc(O)c(O)c3)Oc3cc(O)c4c(c3[C@@H]2[C@H]1O)O[C@H](c1ccc(O)c(O)c1)[C@H](O)[C@H]4c1c(O)cc(O)c2c1O[C@H](c1ccc(O)c(O)c1)[C@@H](O)C2` [cinnamtannin D-1, (2R,3R,4S,8S,14R, 15R)-2,8-bis(3,4-dihydroxyphenyl)-4-[(2R,3S)-2-(3,4-dihydroxyphenyl)-3,5,7-trihydroxy-3,4-dihydro-2H-1-benzopyran-8-yl]-3,4-dihydro-2H,8H,14H-8,14-methano-1,7,9-trioxabenzo[6,7]cycloocta[1,2-a]naphthalene-3,5,11,13,15-pentol], for which the “percent inhibition of LPS-induced overexpression of PD-L1” value came to 48.9% with PD-L1 [4] (10 μg/ml) and 53.0% in the series on PD-L1 [4] (50 μg/ml). Besides, the “effect on LPS-induced overexpression of PD-L1 (in words)” value in the series with PD-L1 [4] (all concentrations tested) is “significantly inhibited”. The “percent inhibition of LPS-induced PDCD-1 down expression” value in the series on PD-1 [5] (2.5 μg/ml) stood at 42%; in the series with PD-1 [5] (5 μg/ml) it was 98%; in the series on PD-1 [5] (10 μg/ml), 81%; in the series with PD-1 [5] (25 μg/ml) it was 48%. For the same compound, the “effect on LPS-induced PD-1 down-regulation (in words)” value in the series with PD-1 [5] (all concentrations tested) is “significantly improved”. Besides, the “percent inhibition of PD-L1 expression” value in the series on PD-L1 [1] (5 μg/ml) stood at 39.9%; with PD-L1 [1] (10 μg/ml), 66.8%; in the series with PD-L1 [1] (25 μg/ml), 58.1%; in the series on PD-L1 [1] (50 μg/ml), 43.6%. The “effect on PD-L1 expression (in words)” value in the series with PD-L1 [1] is given as “significantly inhibited”. Moreover, the “percent increase of PDCD-1 expression” value was determined as 71% with PD-1 [2], 18% with PD-1 [3] (2.5 μg/ml), 45% in the series with PD-1 [3] (5 μg/ml) and 87% in the series with PD-1 [3] (10 μg/ml). Moreover, the “percent inhibition of TNF-α-induced overexpression of PD-L1” value in the series on PD-L1 [6] (10 μg/ml) amounted to 32.0%; with PD-L1 [6] (20 μg/ml), 42.2%; in the series on PD-L1 [6] (50 μg/ml), 43.9%. Also, the “effect on TNF-α-induced overexpression of PD-L1 (in words)” value in the series on PD-L1 [6] (all concentrations tested (10, 20, 50 μg/ml)) was “significantly inhibited”. Moreover, the “effect on PDCD-1 expression (in words)” value with PD-1 [3] is listed as “significantly enhanced”.

As to `O=C(O)c1cc(O)c(O)c(O)c1` [garlic acid], the “percent increase of PDCD-1 expression” value in the series on PD-1 [2] is recorded as 71%; with PD-1 [3] (10 μg/ml) it was 47%; with PD-1 [3] (50 μg/ml), 52%. The “effect on PDCD-1 expression (in words)” value with PD-1 [3] is given as “significantly enhanced”.

Regarding `O=c1c(O)c(-c2ccc(O)c(O)c2)oc2cc(O)cc(O)c12` [quercetin], the “percent increase of PDCD-1 expression” value is reported as 78% in the series with PD-1 [2], 33% in the series on PD-1 [3] (10 μg/ml) and 57% with PD-1 [3] (50 μg/ml). Moreover, the “effect on PDCD-1 expression (in words)” value with PD-1 [3] was “significantly enhanced”.

For `C[C@@H]1O[C@@H](OC[C@H]2O[C@@H](Oc3c(-c4ccc(O)c(O)c4)oc4cc(O)cc(O)c4c3=O)[C@H](O)[C@@H](O)[C@@H]2O)[C@H](O)[C@H](O)[C@H]1O` [rutin], the “percent increase of PDCD-1 expression” value in the series on PD-1 [2] was 48%; in the series on PD-1 [3] (10 μg/ml), 17%; in the series with PD-1 [3] (50 μg/ml) it was 43%.

For “pembrolizumab: antibody therapeutic cited for targeted inhibition of PD-L1 with cardiac side effect”, in the series on PD-L1 [7], the “cardiac side effect associated with treatment” value was “acute heart failure due to autoimmune myocarditis”.
